In BindingDB's records for patent US9796704 (SYMPHONY EVOLUTION, INC., 2017):

Legend:
Assay in all cases: AlphaScreen Assay
[1] = biological target: Vascular endothelial growth factor receptor 2 (Homo sapiens, UniProt P35968)
[2] = biological target: T1, Ephrin type-B receptor 4 (Homo sapiens, UniProt P54760)
T1 sequence (P54760 whole entry): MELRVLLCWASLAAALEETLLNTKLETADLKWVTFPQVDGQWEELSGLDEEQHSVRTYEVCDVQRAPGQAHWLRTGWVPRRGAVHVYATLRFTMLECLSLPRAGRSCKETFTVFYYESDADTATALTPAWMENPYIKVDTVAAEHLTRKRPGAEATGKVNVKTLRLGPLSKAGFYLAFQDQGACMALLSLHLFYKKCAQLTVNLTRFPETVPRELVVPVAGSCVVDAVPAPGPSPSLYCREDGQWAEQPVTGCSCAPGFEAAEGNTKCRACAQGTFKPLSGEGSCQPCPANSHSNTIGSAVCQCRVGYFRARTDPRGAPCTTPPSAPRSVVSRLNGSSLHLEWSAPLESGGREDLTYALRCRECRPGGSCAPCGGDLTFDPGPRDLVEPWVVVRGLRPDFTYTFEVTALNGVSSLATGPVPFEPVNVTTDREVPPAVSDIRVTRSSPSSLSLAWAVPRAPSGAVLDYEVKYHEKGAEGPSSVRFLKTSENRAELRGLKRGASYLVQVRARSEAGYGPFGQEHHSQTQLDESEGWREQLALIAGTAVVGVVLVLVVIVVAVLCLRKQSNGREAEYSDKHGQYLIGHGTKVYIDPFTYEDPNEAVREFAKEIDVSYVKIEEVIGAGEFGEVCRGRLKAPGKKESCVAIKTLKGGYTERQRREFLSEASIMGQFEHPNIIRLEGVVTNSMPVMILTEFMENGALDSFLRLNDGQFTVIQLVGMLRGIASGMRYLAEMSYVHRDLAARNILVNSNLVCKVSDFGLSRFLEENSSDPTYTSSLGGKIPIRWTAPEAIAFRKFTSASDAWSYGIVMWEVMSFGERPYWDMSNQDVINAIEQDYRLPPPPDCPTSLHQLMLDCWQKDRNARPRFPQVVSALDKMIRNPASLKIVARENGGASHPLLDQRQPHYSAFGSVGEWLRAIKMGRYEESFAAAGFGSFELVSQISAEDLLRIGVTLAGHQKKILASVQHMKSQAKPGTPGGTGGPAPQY

[3] = biological target: Ephrin type-A receptor 2 (Homo sapiens, UniProt P29317)
[4] = biological target: Receptor tyrosine-protein kinase erbB-2 (Homo sapiens, UniProt P04626)
Receptor tyrosine-protein kinase erbB-2, sequence (P04626 whole entry): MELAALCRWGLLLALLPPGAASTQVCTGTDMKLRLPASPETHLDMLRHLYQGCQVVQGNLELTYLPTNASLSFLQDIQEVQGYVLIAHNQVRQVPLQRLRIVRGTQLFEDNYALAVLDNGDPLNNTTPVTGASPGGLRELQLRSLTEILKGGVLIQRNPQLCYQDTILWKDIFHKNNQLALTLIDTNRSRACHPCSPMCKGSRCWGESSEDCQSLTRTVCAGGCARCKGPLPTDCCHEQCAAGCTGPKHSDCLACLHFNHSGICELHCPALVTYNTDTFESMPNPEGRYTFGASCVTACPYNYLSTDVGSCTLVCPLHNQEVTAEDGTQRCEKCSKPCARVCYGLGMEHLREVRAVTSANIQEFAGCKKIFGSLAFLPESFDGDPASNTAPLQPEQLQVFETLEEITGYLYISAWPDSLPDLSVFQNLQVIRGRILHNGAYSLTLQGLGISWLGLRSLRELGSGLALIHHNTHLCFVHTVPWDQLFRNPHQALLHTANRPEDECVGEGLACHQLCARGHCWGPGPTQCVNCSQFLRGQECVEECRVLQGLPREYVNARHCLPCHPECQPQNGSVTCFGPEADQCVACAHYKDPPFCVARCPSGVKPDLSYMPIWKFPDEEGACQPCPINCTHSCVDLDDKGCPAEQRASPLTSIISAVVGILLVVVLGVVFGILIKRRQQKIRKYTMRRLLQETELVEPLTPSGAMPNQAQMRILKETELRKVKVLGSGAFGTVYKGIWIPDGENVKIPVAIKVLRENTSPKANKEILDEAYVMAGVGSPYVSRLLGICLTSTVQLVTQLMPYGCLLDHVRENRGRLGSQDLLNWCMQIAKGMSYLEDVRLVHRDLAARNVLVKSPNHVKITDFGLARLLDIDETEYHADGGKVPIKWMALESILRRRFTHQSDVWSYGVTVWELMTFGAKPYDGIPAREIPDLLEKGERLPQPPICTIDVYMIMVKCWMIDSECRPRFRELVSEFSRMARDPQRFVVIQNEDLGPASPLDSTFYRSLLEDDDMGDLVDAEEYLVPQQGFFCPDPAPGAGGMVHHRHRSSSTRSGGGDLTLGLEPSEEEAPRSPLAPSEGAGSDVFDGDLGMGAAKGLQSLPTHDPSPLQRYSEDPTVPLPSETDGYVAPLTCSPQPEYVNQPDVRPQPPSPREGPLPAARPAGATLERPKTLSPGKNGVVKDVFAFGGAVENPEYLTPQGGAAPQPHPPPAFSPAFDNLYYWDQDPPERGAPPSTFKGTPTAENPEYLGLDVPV

Ephrin type-A receptor 2, sequence (P29317 whole entry): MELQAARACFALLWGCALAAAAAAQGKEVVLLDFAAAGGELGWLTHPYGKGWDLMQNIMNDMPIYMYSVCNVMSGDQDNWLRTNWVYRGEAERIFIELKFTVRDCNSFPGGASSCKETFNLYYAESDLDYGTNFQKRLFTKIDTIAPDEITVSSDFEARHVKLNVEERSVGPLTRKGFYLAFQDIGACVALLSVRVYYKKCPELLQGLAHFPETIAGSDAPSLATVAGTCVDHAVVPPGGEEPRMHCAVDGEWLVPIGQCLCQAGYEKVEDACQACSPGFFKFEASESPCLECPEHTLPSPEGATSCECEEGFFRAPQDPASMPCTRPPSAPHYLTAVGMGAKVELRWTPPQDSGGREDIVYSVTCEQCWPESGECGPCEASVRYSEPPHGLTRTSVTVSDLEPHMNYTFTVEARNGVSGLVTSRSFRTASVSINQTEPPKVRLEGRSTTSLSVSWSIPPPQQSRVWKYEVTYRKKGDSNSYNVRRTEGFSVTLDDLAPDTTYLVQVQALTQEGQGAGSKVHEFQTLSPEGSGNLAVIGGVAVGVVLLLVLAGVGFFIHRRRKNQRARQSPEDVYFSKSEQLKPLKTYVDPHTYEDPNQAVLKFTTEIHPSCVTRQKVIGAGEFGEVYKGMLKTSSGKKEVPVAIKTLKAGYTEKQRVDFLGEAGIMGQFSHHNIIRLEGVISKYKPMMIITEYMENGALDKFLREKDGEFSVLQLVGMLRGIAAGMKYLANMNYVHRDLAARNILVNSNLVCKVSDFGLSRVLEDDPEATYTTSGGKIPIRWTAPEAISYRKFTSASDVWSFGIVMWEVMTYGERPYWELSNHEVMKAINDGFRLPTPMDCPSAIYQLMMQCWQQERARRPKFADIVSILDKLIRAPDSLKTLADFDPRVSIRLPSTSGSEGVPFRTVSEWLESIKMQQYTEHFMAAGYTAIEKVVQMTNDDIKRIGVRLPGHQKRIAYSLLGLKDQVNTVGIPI
Vascular endothelial growth factor receptor 2, sequence (P35968 whole entry): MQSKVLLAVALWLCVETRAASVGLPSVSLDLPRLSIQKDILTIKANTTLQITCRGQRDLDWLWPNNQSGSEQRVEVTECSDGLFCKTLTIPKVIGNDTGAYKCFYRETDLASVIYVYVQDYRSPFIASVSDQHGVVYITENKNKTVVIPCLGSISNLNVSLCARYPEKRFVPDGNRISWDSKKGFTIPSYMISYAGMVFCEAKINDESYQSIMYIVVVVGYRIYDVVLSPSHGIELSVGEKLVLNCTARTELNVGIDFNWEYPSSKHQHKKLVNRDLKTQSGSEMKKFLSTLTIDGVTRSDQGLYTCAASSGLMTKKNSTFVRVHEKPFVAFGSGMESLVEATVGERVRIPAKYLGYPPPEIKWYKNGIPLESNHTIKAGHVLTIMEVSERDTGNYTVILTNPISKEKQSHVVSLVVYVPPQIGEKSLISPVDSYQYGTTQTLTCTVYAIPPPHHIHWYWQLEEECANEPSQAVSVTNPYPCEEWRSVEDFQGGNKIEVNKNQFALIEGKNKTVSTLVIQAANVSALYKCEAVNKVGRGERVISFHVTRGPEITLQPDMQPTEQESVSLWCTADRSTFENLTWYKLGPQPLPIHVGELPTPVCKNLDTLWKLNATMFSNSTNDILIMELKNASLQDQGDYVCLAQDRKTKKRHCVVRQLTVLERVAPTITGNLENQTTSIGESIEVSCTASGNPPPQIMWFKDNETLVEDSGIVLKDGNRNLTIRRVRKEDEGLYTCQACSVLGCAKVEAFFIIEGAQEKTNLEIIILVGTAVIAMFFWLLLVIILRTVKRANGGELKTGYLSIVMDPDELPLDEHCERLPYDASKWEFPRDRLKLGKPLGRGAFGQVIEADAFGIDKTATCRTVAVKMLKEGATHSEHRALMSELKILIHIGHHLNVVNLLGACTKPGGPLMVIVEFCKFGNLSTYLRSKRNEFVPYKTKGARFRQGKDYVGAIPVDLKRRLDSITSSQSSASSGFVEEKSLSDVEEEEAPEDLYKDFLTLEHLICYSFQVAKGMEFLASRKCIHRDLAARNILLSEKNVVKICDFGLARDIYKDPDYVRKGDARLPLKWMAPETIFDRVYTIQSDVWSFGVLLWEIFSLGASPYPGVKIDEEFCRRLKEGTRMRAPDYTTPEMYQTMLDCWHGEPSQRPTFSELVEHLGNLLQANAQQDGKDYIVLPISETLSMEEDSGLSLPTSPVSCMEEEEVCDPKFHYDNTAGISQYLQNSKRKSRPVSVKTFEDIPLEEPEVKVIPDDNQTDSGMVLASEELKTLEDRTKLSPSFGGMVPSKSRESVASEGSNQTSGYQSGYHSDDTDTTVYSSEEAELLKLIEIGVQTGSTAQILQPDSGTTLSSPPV

Row | SMILES | IC50 [1] | IC50 [2] | IC50 [3] | IC50 [4]
1 | COc1cc2c(Nc3ccc(Br)c(Cl)c3F)ncnc2cc1OC[C@@H]1C[C@@H]2CN(C(C)C)C[C@@H]2C1 [US9796704, Entry 2] | […] | < 50 nM |  | 
2 | COc1cc2c(Nc3ccc(Br)c(Cl)c3F)ncnc2cc1OC[C@@H]1C[C@@H]2CN(C(C)=O)C[C@@H]2C1 [US9796704, Entry 3] |  | < 50 nM |  | 
3 | COc1cc2c(Nc3ccc(Br)c(Cl)c3F)ncnc2cc1OC[C@H]1C[C@H]2CNC[C@H]2C1 [US9796704, Entry 4] |  | < 50 nM |  | 
4 | CCOC(=O)N1C[C@H]2CC(COc3cc4ncnc(Nc5ccc(Br)c(Cl)c5F)c4cc3OC)C[C@H]2C1 (some centres not stated) [US9796704, Entry 5] | in the range around 10500 nM | < 50 nM |  | 
5 | COc1cc2c(Nc3cc(Cl)c(Cl)cc3F)ncnc2cc1OC[C@H]1CN2CCOCC2CO1 (some centres not stated) [US9796704, Entry 19] | < 50 nM | < 50 nM |  | 
6 | COc1cc2c(Nc3ccc(F)c(Cl)c3F)ncnc2cc1OC[C@H]1CN2CCOCC2CO1 (some centres not stated) [US9796704, Entry 21] | < 50 nM | < 50 nM |  | 
7 | COc1cc2c(Nc3ccc(F)c(Cl)c3F)ncnc2cc1OC[C@@H]1CN2CCOCC2CO1 (some centres not stated) [US9796704, Entry 24] |  | in the range around 10500 nM |  | 
8 | COc1cc2c(Nc3cc(Cl)c(Br)cc3F)ncnc2cc1OC[C@@H]1CN2CCOCC2CO1 (some centres not stated) [US9796704, Entry 28] |  | in the range around 525 nM | < 50 nM | 
9 | COc1cc2c(Nc3ccc(Cl)c(Cl)c3)ncnc2cc1OC[C@@H]1CN2CCC[C@@H]2CO1 [US9796704, Entry 33] |  |  | in the range around 525 nM | in the range around 525 nM
10 | COc1cc2c(Nc3cc(Cl)c(Cl)cc3F)ncnc2cc1OC[C@@H]1CN2CCC[C@H]2CO1 [US9796704, Entry 40] | in the range around 525 nM |  | in the range around 525 nM | in the range around 10500 nM
11 | COc1cc2c(Nc3ccc(Cl)c(Cl)c3)ncnc2cc1OC1C[C@@H]2CN(C)C[C@@H]2C1 (some centres not stated) [US9796704, Entry 59] |  | < 50 nM |  | 
12 | COc1cc2c(Nc3c(F)cccc3F)ncnc2cc1O[C@@H]1CO[C@@H]2[C@H]1OC[C@H]2F [US9796704, Entry 87] |  | in the range around 525 nM | in the range around 525 nM | 
13 | COc1cc2c(Nc3ccc(F)c(C(F)(F)F)c3)ncnc2cc1O[C@@H]1CO[C@@H]2[C@H]1OC[C@H]2F [US9796704, Entry 89] |  | in the range around 525 nM |  | 
14 | COc1cc2c(Nc3ccc(F)cc3F)ncnc2cc1O[C@@H]1CO[C@@H]2[C@H]1OC[C@H]2F [US9796704, Entry 90] |  | in the range around 525 nM | in the range around 525 nM | 
15 | COc1cc2c(Nc3ccc(Cl)c(Cl)c3F)ncnc2cc1O[C@@H]1CO[C@@H]2[C@H]1OC[C@H]2F [US9796704, Entry 97] |  |  | in the range around 525 nM | in the range around 525 nM
16 | COc1cc2c(Nc3ccc(Cl)cc3F)ncnc2cc1O[C@@H]1CO[C@@H]2[C@H]1OC[C@H]2F [US9796704, Entry 109] |  | in the range around 525 nM | in the range around 525 nM | 
17 | COc1cc2c(Nc3ccc(Cl)cc3Cl)ncnc2cc1O[C@@H]1CO[C@@H]2[C@H]1OC[C@H]2F [US9796704, Entry 117] | in the range around 525 nM |  | in the range around 525 nM | in the range around 525 nM
18 | COc1cc2c(Nc3c(F)cc(F)cc3Br)ncnc2cc1O[C@@H]1CO[C@@H]2[C@H]1OC[C@H]2F [US9796704, Entry 120] |  | in the range around 525 nM | in the range around 525 nM | 
19 | COc1cc2c(Nc3cc(C(F)(F)F)ccc3Cl)ncnc2cc1O[C@@H]1CO[C@@H]2[C@H]1OC[C@H]2F [US9796704, Entry 122] |  | in the range around 525 nM | in the range around 525 nM | 
20 | COc1ccc(OC)c(Nc2ncnc3cc(O[C@@H]4CO[C@@H]5[C@H]4OC[C@H]5F)c(OC)cc23)c1 [US9796704, Entry 134] |  | in the range around 525 nM | in the range around 525 nM | 

Row | SMILES | IC50 [1] | IC50 [2] | IC50 [3] | IC50 [4]
21 | COc1cc2c(Nc3ccc(Cl)c(Cl)c3)ncnc2cc1OCC1CN(C(=O)OC(C)(C)C)CCO1 (configuration not stated) [US9796704, Entry 148] |  |  | in the range around 525 nM | in the range around 525 nM
22 | COc1cc2c(Nc3ccc(Cl)c(Cl)c3)ncnc2cc1OCc1noc(C(C)(C)C)n1 [US9796704, Entry 157] |  | in the range around 525 nM | in the range around 525 nM | 
23 | COc1cc2c(Nc3ccc(Cl)c(Cl)c3)ncnc2cc1OCc1noc(-c2cccc(C(F)(F)F)c2)n1 [US9796704, Entry 166] |  | in the range around 525 nM | in the range around 525 nM | 
24 | COc1cc2c(Nc3ccc(Cl)c(Cl)c3)ncnc2cc1OCc1ccncc1 [US9796704, Entry 172] | in the range around 525 nM |  | in the range around 525 nM | in the range around 525 nM
25 | COc1cc2c(Nc3ccc(Cl)c(Cl)c3)ncnc2cc1OCc1cccnc1 [US9796704, Entry 179] | in the range around 525 nM | in the range around 525 nM |  | 
26 | COc1cc2c(Nc3ccc(Cl)c(Cl)c3)ncnc2cc1OCc1c(F)cccc1F [US9796704, Entry 233] | in the range around 525 nM |  | in the range around 525 nM | in the range around 10500 nM
27 | CCCN1CCCOC(COc2cc3ncnc(Nc4ccc(Cl)c(Cl)c4)c3cc2OC)C1 (configuration not stated) [US9796704, Entry 258] | in the range around 10500 nM |  | in the range around 10500 nM | in the range around 10500 nM
28 | COc1cc2c(Nc3ccc(Cl)c(Cl)c3)ncnc2cc1OCC1CN(CC2CC2)CCCO1 (configuration not stated) [US9796704, Entry 259] | in the range around 10500 nM |  | in the range around 10500 nM | in the range around 10500 nM
29 | CCN1CCCC1c1nc(COc2cc3ncnc(Nc4ccc(Cl)c(Cl)c4)c3cc2OC)no1 (configuration not stated) [US9796704, Entry 264] | in the range around 525 nM |  |  | in the range around 10500 nM
30 | COc1cc2c(Nc3ccc(Cl)c(Cl)c3)ncnc2cc1OCc1nc([C@@H]2CCCN2C)no1 [US9796704, Entry 265] | in the range around 10500 nM |  |  | in the range around 10500 nM
31 | COc1cc2c(Nc3ccc(Cl)c(Cl)c3)ncnc2cc1OCc1csc([C@@H]2CCCN2C)n1 [US9796704, Entry 266] | in the range around 10500 nM |  |  | in the range around 10500 nM
32 | CCN1CCN(c2nc(COc3cc4ncnc(Nc5ccc(Cl)c(Cl)c5)c4cc3OC)cs2)CC1 [US9796704, Entry 267] | in the range around 10500 nM |  |  | in the range around 525 nM
33 | COc1cc2c(Nc3ccc(Cl)c(Cl)c3)ncnc2cc1OCC1CN(C)CCN1C (configuration not stated) [US9796704, Entry 268] | in the range around 10500 nM |  |  | in the range around 525 nM
34 | COc1cc2c(Nc3ccc(Cl)c(Cl)c3)ncnc2cc1OCC1CN(C2CCCC2)CCO1 (configuration not stated) [US9796704, Entry 269] | in the range around 525 nM |  | in the range around 10500 nM | in the range around 10500 nM
35 | COc1cc2c(Nc3ccc(Cl)c(Cl)c3)ncnc2cc1OCC1CN(C(C)C)CCO1 (configuration not stated) [US9796704, Entry 270] | in the range around 525 nM |  |  | in the range around 525 nM
36 | COc1cc2c(Nc3ccc(Cl)c(Cl)c3)ncnc2cc1OCC1CN(CCCc2ccccc2)CCO1 (configuration not stated) [US9796704, Entry 271] | in the range around 10500 nM |  |  | in the range around 525 nM
37 | COCCN1CCOC(COc2cc3ncnc(Nc4ccc(Cl)c(Cl)c4)c3cc2OC)C1 (configuration not stated) [US9796704, Entry 272] | in the range around 10500 nM |  |  | in the range around 525 nM
38 | CCOC(=O)C(C)N1CCOC(COc2cc3ncnc(Nc4ccc(Cl)c(Cl)c4)c3cc2OC)C1 (configuration not stated) [US9796704, Entry 273] | in the range around 10500 nM |  |  | in the range around 10500 nM
39 | COc1cc2c(Nc3ccc(Cl)c(Cl)c3)ncnc2cc1OCC1CN(CCOCCO)CCO1 (configuration not stated) [US9796704, Entry 275] | in the range around 10500 nM |  |  | in the range around 10500 nM
40 | COc1cc2c(Nc3ccc(Cl)c(Cl)c3)ncnc2cc1OCC1CN(CCCCCC#N)CCO1 (configuration not stated) [US9796704, Entry 277] | in the range around 10500 nM |  |  | in the range around 525 nM
